Reference: ChEMBL document CHEMBL1255393, “Impact of different factors on the probability of clinical response in tigecycline-treated patients with intra-abdominal infections” (Antimicrob Agents Chemother, 2010)
Values after ≈ are worked out from the molar mass of the structure shown.

Columns and labels:
[1] = Ratio of AUC in intra-abdominal infection patient at 100 mg followed by 50 mg every 12 hrs for 5 to 14 days to MIC for Enterobacteriaceae isolate; type: functional
Enterobacteriaceae = test: Antibacterial activity against Enterobacteriaceae isolate obtained from intra-abdominal infection patient; type: functional
[2] = Serum clearance in intra-abdominal infection patient at 100 mg followed by 50 mg every 12 hrs for 5 to 14 days; type: ADME, organism-based; conditions: human
[3] = AUC in intra-abdominal infection patient at 100 mg followed by 50 mg every 12 hrs for 5 to 14 days; type: ADME, organism-based; conditions: human, plasma

MIC50 (Enterobacteriaceae): 0.25 µg/mL (≈ 0.427 µM)
MIC90 (Enterobacteriaceae): 1 µg/mL (≈ 1.71 µM)
clearance [2]: 268 mL/min
AUC [3]: 6190 ng·h/mL
SMILES: CN(C)c1cc(NC(=O)CNC(C)(C)C)c(O)c2c1C[C@H]1C[C@H]3[C@H](N(C)C)C(O)=C(C(N)=O)C(=O)[C@@]3(O)C(O)=C1C2=O [TIGECYCLINE]
Ratio [1]: 21.8
